# From ChEMBL document CHEMBL1201862, “PubChem BioAssay data set” (2004)
# Active and inactive are the calls of the source.
# Columns and labels:
# [1] = Luminescence Cell-Based Dose Confirmation HTS to Identify Inhibitors of Platelet Dense Granule Release. [Related pubchem assays: 1663 (Primary HTS), 1678 (Summary of Project)]; type: functional
# [2] = biological target: Voltage-dependent T-type calcium channel subunit alpha-1H (Homo sapiens, UniProt O95180); type: functional;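 also: channel activity triggered by adding a high calcium stimulation buffer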
# Chain of Voltage-dependent T-type calcium channel subunit alpha-1H (O95180 whole entry): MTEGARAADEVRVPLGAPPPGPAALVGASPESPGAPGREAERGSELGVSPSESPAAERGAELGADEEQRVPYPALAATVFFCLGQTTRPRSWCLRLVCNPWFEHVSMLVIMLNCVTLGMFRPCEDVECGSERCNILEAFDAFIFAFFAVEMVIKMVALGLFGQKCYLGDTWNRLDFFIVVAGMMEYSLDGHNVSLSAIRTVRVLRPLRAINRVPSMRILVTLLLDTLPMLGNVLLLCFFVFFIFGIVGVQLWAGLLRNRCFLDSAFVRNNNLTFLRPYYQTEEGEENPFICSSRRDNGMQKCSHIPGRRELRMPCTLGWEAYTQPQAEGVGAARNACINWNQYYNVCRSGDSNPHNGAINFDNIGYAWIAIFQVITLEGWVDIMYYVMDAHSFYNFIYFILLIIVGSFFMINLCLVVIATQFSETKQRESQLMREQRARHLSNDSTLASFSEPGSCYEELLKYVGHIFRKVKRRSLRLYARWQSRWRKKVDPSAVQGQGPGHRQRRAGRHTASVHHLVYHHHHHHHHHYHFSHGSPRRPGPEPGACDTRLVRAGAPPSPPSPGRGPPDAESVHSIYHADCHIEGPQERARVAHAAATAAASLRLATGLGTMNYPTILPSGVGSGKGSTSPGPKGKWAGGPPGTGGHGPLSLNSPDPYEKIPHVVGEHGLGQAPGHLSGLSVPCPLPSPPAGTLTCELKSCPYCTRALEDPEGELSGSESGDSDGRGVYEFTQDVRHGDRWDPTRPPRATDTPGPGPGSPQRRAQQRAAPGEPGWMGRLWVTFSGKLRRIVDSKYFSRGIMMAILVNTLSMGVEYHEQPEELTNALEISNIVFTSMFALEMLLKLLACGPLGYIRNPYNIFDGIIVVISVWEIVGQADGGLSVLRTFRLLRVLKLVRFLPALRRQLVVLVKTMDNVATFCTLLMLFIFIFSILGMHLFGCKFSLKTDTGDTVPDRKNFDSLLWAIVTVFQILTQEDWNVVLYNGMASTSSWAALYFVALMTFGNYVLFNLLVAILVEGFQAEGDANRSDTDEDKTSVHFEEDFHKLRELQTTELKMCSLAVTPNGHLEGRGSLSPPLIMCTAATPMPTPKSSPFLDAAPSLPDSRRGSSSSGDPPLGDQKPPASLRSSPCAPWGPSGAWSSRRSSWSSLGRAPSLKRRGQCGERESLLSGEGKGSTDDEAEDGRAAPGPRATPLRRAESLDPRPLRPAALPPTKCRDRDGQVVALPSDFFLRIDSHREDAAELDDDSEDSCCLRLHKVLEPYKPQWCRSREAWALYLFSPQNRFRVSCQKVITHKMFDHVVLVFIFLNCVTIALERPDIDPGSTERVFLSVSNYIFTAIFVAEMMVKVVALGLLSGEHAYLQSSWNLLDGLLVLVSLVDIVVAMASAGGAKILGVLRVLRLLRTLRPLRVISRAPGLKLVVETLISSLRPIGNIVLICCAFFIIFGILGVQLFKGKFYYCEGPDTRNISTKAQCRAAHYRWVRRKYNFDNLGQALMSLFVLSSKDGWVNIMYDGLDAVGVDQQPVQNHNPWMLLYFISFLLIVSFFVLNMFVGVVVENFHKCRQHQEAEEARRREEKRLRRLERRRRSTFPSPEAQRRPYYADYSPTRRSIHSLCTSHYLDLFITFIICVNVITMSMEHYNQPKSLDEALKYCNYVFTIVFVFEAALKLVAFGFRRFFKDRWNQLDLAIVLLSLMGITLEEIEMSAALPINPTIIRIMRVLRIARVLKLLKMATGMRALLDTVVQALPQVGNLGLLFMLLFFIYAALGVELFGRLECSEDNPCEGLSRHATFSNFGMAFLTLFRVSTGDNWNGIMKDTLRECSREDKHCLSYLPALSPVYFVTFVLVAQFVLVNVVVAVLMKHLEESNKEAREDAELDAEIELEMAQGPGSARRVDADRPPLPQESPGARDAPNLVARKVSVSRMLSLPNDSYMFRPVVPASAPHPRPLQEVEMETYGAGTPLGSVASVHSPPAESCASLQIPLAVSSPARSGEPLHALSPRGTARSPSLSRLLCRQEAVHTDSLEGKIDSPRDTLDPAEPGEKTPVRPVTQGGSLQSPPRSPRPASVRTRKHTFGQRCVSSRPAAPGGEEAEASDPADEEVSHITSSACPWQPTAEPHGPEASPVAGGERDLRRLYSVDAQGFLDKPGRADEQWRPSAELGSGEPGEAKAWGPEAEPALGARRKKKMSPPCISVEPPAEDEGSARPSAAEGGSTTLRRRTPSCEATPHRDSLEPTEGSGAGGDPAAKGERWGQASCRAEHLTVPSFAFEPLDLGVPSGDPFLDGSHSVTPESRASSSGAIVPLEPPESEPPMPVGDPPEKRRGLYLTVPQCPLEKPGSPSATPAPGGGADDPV
# [3] = biological target: Luciferin 4-monooxygenase (Photinus pyralis, UniProt P08659); test: inhibition of purified Photinus pyralis luciferase – biochemical, luminescence, dose response (AID 1891)
# Chain of Luciferin 4-monooxygenase (P08659 whole entry): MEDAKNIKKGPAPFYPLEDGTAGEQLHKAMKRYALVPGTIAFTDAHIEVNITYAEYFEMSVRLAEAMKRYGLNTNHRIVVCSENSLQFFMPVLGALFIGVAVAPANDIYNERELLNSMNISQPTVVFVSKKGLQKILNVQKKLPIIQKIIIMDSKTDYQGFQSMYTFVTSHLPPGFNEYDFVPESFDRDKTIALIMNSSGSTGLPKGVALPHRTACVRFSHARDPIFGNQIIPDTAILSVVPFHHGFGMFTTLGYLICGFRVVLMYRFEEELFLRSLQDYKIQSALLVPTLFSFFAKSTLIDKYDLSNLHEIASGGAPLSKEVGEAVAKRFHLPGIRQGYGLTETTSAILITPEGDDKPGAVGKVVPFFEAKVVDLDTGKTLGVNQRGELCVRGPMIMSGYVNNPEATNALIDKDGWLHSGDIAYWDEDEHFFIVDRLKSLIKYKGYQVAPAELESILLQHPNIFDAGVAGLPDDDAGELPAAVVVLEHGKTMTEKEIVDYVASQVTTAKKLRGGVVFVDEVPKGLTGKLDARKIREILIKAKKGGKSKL
# [4] = alpha-synuclein stem-loop translation blockers – luminescence, H4 neuroglioblastoma cells, dose confirmation, confirmation (AID 2454); type: functional, cell-based;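 also: H4 neuroglioblastoma cells carrying an alpha-synuclein 5'UTR luciferase reporter; potency for inhibition of the luciferase signal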
# [5] = luciferase reporter signal reduction – luminescence, H4-C neuroglioblastoma cells, dose response (AID 2458); type: functional, cell-based;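 also: H4 neuroglioblastoma cells stably carrying a luciferase reporter gene fusion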
# [6] = cells; type: functional, cell-based
# [7] = biological target: T1, Heat shock factor protein 1 (Mus musculus, UniProt P38532); test: decrease of HSF1-responsive luciferase luminescence – cell-based, NIH3T3, dose retest, confirmation (AID 2382); type: functional;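 also: NIH3T3 fibroblasts with HSF1-driven luciferase reporter stressed by proteasome inhibitor MG132; luminescence from HSF1-driven luciferase expression after 8 hours of MG132 stress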
# T1 sequence (P38532 whole entry): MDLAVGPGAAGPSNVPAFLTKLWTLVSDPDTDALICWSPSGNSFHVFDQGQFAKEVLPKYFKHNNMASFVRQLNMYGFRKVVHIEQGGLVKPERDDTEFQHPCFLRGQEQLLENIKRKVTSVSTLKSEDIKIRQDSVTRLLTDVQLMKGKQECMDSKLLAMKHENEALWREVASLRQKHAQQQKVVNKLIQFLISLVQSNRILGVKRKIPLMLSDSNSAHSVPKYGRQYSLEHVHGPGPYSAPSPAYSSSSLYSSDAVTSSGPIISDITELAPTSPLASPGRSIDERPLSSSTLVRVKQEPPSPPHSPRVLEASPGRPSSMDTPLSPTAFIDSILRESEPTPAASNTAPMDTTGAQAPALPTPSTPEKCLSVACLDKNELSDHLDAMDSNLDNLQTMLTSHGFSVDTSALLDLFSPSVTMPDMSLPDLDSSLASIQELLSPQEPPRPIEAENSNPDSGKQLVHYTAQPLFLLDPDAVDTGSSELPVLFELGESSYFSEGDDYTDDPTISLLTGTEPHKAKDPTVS
# [8] = biological target: Ion channel NompC (Danio rerio, UniProt Q7T1G6); test: Fluorescence counterscreen assay for TRPML3 agonists: dose response cell-based high-throughput screening assay to identify agonists of the transient receptor potential channel N1 (TRPN1). [Related pubchem assays: 1526, 1424, 1448 ]; type: functional
# [9] = biological target: T2, Mucolipin-3 (Homo sapiens, UniProt Q8TDD5); test: Dose response cell-based high-throughput screening assay for agonists of the transient receptor potential channel ML3 (TRPML3). [Related pubchem assays: 1526, 1424, 1448 ]; type: functional
# T2 sequence (Q8TDD5 whole entry): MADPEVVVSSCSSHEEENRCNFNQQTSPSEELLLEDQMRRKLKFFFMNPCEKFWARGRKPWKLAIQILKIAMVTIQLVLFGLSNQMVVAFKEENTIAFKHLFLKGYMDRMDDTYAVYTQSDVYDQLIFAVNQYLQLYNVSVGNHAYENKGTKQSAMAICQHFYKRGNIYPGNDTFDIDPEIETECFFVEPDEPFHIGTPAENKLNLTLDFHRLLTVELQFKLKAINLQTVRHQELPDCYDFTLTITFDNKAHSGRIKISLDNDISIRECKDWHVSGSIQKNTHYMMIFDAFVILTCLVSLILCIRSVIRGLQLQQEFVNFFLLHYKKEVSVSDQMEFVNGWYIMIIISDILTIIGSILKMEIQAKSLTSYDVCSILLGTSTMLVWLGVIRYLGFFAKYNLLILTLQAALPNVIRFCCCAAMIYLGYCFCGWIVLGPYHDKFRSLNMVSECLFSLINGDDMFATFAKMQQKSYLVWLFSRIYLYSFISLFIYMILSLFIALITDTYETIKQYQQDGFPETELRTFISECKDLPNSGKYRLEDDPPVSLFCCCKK
# [10] = luciferase reporter signal suppression in cells – H4 neuroglioma cells, luminescence, dose response (AID 1990); type: functional, cell-based
# [11] = Luminescence Cell-Based Dose Response HTS to Identify Inhibitors of 5'UTR Stem-Loop Driven Prion Protein mRNA Translation in H4 Neuroglioblastoma Cells. [Related pubchem assays: 1827 (Project Summary), 1813 (Primary HTS)]; type: functional
# [12] = A cytotoxicity screen of small molecule inhibitors of the PhoP region in Salmonella typhi identified in the primary screen. [Related pubchem assays: 1850, 1864, 1985 ]; type: functional
# [13] = biological target: Protein-tyrosine kinase 2-beta (Homo sapiens, UniProt Q14289);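 also: potency of inhibitors of PYK2 kinase phosphorylation of poly-GT substrate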
# Chain of Protein-tyrosine kinase 2-beta (Q14289 whole entry): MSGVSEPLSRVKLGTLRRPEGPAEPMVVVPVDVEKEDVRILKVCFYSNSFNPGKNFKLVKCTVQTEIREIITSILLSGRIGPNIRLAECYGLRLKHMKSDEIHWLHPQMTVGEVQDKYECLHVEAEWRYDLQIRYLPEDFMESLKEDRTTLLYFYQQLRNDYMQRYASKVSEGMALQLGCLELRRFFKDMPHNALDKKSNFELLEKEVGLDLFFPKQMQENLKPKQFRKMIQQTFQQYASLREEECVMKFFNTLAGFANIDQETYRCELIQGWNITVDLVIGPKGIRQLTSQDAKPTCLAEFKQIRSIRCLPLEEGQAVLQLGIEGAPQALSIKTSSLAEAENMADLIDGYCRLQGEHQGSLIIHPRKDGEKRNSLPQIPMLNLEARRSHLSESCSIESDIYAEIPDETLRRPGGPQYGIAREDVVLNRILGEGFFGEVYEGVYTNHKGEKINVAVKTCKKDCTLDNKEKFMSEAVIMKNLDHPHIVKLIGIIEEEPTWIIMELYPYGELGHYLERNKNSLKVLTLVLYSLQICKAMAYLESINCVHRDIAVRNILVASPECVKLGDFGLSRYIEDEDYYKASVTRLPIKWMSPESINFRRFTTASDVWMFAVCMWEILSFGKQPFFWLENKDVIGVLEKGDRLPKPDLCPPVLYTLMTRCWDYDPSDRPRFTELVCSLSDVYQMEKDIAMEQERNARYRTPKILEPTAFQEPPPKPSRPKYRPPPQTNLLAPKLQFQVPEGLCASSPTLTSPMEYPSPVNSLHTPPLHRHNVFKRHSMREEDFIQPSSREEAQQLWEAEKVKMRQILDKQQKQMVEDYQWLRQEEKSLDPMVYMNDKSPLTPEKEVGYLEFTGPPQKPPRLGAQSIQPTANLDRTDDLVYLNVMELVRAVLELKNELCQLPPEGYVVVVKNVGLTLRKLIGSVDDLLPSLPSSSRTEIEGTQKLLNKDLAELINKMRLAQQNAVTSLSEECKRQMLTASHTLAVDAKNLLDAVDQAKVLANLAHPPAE
# [14] = biological target: T3, Cytochrome P450 1A2 (Homo sapiens, UniProt P05177);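 also: PubChem cytochrome P450 panel assay, CYP1A2 panel member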
# T3 sequence (P05177 whole entry): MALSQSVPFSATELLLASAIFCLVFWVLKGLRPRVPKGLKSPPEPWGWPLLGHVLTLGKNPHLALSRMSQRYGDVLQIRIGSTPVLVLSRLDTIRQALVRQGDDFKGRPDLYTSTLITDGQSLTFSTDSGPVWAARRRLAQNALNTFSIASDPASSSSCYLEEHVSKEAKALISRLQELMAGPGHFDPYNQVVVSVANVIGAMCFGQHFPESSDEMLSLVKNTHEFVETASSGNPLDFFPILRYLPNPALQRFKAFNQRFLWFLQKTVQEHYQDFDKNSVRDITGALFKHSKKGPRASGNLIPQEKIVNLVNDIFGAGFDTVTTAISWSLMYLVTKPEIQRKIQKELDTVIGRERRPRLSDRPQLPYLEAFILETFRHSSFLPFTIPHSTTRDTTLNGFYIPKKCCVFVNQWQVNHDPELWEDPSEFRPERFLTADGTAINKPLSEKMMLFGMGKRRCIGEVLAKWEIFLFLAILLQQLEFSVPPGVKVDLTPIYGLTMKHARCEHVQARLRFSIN
# [15] = biological target: Cytochrome P450 2C19 (Homo sapiens, UniProt P33261); test: Cytochrome panel assay with activity outcomes. Panel member name: p450-cyp2c19 Compounds with AC50 equal or less than 10 uM are considered active; type: functional
# [16] = biological target: T4, Estrogen receptor beta (Homo sapiens, UniProt Q92731); test: blockers of SRC-3 recruitment to ERβ – biochemical, ELISA, streptavidin-HRP readout, orthogonal assay, confirmation (AID 1060)
# T4 sequence (Q92731 whole entry): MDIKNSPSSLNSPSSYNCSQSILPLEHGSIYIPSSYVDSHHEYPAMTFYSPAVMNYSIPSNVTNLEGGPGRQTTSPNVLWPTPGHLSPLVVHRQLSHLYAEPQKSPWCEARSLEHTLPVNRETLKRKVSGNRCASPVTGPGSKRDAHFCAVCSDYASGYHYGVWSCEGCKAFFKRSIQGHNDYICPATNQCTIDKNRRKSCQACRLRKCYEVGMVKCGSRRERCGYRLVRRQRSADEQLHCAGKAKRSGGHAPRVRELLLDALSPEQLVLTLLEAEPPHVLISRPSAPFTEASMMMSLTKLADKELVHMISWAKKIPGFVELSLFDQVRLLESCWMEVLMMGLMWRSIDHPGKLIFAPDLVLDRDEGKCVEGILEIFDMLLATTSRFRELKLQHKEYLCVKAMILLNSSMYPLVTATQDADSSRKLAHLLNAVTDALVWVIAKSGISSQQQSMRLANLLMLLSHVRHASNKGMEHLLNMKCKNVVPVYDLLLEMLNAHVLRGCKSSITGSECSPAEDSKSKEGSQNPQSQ
# [17] = biological target: Cytochrome P450 3A4 (Homo sapiens, UniProt P08684);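 also: CYP3A4 tested as one member of a cytochrome P450 panel screen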
# Chain of Cytochrome P450 3A4 (P08684 whole entry): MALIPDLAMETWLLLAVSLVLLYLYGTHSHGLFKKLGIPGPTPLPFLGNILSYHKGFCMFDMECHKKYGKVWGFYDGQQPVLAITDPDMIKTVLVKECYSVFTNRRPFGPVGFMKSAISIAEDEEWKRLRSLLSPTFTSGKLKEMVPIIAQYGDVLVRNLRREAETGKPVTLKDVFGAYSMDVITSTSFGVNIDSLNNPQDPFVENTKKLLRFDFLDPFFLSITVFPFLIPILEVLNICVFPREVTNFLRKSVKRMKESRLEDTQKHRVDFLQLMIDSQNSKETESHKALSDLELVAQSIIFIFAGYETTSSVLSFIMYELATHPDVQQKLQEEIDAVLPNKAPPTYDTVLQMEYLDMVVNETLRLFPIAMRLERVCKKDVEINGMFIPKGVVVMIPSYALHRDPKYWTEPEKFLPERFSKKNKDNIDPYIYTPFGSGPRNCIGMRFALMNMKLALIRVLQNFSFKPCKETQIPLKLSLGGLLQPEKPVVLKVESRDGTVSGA
# [18] = biological target: T4, Estrogen receptor beta
# [19] = biological target: Cytochrome P450 2C9 (Homo sapiens, UniProt P11712)
# [20] = viability loss in THP-1 monocytes – THP-1 cells, cytotoxicity control for Vif-APOBEC3G degradation inhibitor project, dose response (AID 1117359); type: functional; conditions: THP-1
# [21] = biological target: T5, Ubiquitin carboxyl-terminal hydrolase BAP1 (Homo sapiens, UniProt Q92560); test: inhibition of BAP1 ubiquitin hydrolase activity – biochemical, dose response (AID 714); type: functional
# T5 sequence (Q92560 whole entry): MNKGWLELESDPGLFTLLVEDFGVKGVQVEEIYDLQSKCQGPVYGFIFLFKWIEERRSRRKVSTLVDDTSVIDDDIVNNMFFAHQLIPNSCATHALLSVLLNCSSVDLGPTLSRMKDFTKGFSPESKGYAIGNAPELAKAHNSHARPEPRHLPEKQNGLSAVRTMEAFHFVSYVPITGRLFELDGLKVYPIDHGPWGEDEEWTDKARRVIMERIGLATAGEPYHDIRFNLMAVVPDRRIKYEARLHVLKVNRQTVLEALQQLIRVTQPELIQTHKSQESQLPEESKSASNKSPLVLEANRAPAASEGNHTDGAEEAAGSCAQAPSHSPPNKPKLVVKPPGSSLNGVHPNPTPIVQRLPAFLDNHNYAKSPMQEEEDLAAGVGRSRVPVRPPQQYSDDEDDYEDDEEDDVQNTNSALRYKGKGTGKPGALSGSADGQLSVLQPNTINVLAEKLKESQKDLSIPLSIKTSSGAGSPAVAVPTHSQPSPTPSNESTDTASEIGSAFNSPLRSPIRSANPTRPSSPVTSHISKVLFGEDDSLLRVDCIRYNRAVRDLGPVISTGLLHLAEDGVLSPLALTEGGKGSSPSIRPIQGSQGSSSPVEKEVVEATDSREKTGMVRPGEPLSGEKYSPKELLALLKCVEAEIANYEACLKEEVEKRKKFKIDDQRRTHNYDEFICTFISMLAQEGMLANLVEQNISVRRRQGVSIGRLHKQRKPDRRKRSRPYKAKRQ
# [22] = biological target: T6, Protein Tat (Human immunodeficiency virus type 1 group M subtype B (isolate HXB2)(HIV-1), UniProt P04608); type: functional;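 also: tat binding to TAR RNA read out by fluorescence polarization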
# T6 sequence (P04608 whole entry): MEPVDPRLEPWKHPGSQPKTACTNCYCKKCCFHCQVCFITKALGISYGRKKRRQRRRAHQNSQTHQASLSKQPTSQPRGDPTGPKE
# [23] = biological target: T7, Bcl-2-like protein 10 (Homo sapiens, UniProt Q9HD36); test: Bcl-B/TR3 peptide binding disruption – biochemical, fluorescence polarization, FITC-TR3 peptide, selectivity assay for Bfl-1 inhibitor project, primary screen (AID 748);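 also: fluorescence polarization from a fluorescein-labelled TR3 peptide binding purified Bcl-B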
# T7 sequence (Q9HD36 whole entry): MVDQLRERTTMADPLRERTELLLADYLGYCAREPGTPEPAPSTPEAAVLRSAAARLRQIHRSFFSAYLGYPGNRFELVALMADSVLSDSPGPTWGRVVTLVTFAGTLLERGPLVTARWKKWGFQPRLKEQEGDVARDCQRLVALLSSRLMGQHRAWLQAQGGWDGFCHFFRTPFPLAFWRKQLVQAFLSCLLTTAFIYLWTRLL
# [24] = biological target: T8, Calpain-2 catalytic subunit (Sus scrofa, UniProt P43367); test: m-calpain protease blockers, concentration series – biochemical, fluorogenic peptide substrate, dose response (AID 1420); type: functional
# T8 sequence (P43367 whole entry): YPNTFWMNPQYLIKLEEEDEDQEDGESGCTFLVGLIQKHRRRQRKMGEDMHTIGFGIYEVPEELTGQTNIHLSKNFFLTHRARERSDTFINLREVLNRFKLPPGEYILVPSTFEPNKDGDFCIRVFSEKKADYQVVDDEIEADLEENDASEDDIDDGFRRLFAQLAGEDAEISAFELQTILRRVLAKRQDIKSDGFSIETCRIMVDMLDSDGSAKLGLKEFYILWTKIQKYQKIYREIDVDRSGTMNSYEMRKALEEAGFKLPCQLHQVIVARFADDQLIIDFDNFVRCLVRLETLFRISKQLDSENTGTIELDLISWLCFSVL
structure (smiles),measurement,setting,value
CC(C)(C)n1nnnc1C(c1ccc(Cl)cc1)N1CCSCC1 (stereo not drawn),EC50,[1],> 112 µM (not active)
same,EC50,[2],0.85 µM (active)
same,EC50,[3],> 112 µM (not active)
C=CCSc1nc2c(cnn2-c2ccccc2)c(=O)n1N,EC50,[4],0.235 µM (inconclusive)
same,EC50,[5],0.375 µM (inconclusive)
same,EC50,[6],0.914 µM (inconclusive)
CCCCn1c(C)cc(C)c(S(=O)(=O)c2ccccc2C)c1=O,EC50,[7],> 195 µM (not active)
same,EC50,[8],> 29.9 µM (not active)
same,EC50,[9],3.78 µM (active)
Cc1ccc(Cn2cc(C=O)c3ccccc32)cc1,EC50,[10],4.41 µM (active)
same,EC50,[11],< 0.1 µM (active)
same,EC50,[4],1.29 µM (active)
same,EC50,[5],1.22 µM (active)
same,EC50,[6],0.782 µM (active)
COc1ccccc1N1CCN(CCCCOc2ccc(F)cc2)CC1,EC50,[2],7.52 µM (active)
CC1=C(C#N)CCC(=O)N1Cc1c(C)cc(C)cc1C,EC50,[12],> 50 µM (active)
CC1(C)CCCC2=C1CC1C(=O)N(c3ccccc3)C(=O)C1C2 (stereo not drawn),EC50,[8],> 29.9 µM (not active)
same,EC50,[9],> 29.9 µM (not active)
COc1cccc(CN2CC(=O)C(c3nc(-c4ccc(Cl)cc4)cs3)=C2N)c1,IC50,[13],5.59 µM (active)
O=C(Nc1ccc2c(c1)OCCO2)c1cc2sccc2n1Cc1ccccc1,AC50,[14],12.6 µM (inconclusive)
same,EC50,[2],7.92 µM (active)
COc1ccc(NC(=O)N2CCc3ccccc32)cc1,EC50,[1],1.08 µM (active)
same,EC50,[3],3.53 µM (active)
same,EC50,[12],> 50 µM (active)
Cc1ccc(C)c(C(=O)C2=C(O)C(=O)N(CCN3CCOCC3)C2c2ccco2)c1 (stereo not drawn),AC50,[15],inconclusive
same,IC50,[16],32.1 µM (not active)
same,AC50,[17],39.8 µM (inconclusive)
same,IC50,[18],18.4 µM (active)
same,AC50,[19],0.1 µM (inconclusive)
CN(C)c1ccc(NC(=O)CSc2nc3ccccc3c(=O)n2C2CCCCC2)cc1,CC50,[20],> 40 µM (active)
same,IC50,[21],30.2 µM (not active)
same,IC50,[22],47.4 µM (inconclusive)
O=C(Oc1ccccc1Cl)c1ccccc1P(=O)(O)O,IC50,[13],4.49 µM (active)
COc1ccc(CCn2c(=N)c(C(=O)NCC3CCCO3)cc3c(=O)n4ccccc4nc32)cc1 (stereo not drawn),EC50,[1],15.7 µM (active)
same,EC50,[3],> 112 µM (not active)
same,EC50,[12],> 50 µM (active)
Cc1nn2c(N)csc2nc1=O,IC50,[23],> 12.5 µM (inactive)
CCOc1ccc(NC2=NC(=O)S/C2=C\c2ccc(Cl)cc2)cc1,IC50,[24],> 50 µM (not active)
same,IC50,[13],2.79 µM (active)
O=C(NCc1ccco1)c1cc2n(n1)C(C(F)(F)F)CC(c1ccc(Br)cc1)N2 (stereo not drawn),IC50,[21],> 50 µM (not active)
Cc1cccc2cc(C(c3nnnn3C(C)(C)C)N3CCN(C(=O)c4ccco4)CC3)c(=O)[nH]c12 (stereo not drawn),IC50,[21],17.3 µM (active)
O=[N+]([O-])c1cc(-c2ccc(/C=N/c3nc4ccccn4c3-c3ccco3)o2)ccc1Cl,CC50,[20],18.8 µM (active)
same,IC50,[23],96.8 µM (inactive)
